Each structure is given as a SMILES string.

This assay deals with T1, TBK1 (Homo sapiens, UniProt Q9UHD2).
T1 construct: All protein kinases were of human origin and encoded full length proteins, unless indicated otherwise; His6; made in house; host or cells: insect Sf21 cells
T1 sequence (Q9UHD2 1-729): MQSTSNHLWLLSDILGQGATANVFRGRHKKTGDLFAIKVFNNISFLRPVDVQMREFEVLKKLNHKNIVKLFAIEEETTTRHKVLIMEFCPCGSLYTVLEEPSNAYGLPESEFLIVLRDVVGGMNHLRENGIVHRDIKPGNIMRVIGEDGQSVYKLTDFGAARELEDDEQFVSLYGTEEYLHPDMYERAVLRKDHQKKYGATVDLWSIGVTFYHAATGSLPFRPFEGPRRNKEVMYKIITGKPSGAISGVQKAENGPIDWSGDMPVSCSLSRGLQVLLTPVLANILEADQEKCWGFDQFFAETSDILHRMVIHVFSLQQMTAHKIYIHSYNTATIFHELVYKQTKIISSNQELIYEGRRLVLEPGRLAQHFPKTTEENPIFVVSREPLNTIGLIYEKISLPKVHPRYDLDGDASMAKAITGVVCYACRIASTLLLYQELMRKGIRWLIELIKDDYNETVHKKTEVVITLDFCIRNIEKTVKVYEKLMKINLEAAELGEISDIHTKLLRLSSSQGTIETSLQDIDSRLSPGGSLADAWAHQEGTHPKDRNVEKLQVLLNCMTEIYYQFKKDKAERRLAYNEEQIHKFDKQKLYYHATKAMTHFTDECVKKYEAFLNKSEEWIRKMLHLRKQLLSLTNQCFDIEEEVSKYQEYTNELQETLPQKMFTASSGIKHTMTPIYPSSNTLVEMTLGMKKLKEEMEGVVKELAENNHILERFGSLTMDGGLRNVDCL
Description: TBK1 protein kinase assay ([γ-33P]ATP, P81 filterplates). Format: biochemical. The following applies: 50 μM ATP; read-out: Potency (TBK1 IC50 potency score). An outline of the steps: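 Human TBK1 assayed for 30 min with peptide substrate (300 μM), 50 μM [γ-33P]ATP and 10 mM magnesium acetate in 50 mM Tris/HCl pH 7.5, 0.1 mM EGTA, 0.1% 2-mercaptoethanol. Stopped with orthophosphoric acid and counted on P81 filters. IC50 from 10 compound concentrations.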
In general, IC50 refers to the concentration that gives 50% inhibition. Consider `CC(C)(c1cccc(Nc2ncc(C3CC3)c(NCCCNC(=O)C3CCC3)n2)c1)N1CCOCC1` [Example 145, Cyclobutanecarboxylic acid (3-{5-cyclopropyl-2-[3-(1-methyl-1-morpholin-4-yl-ethyl)-phenylamino]-pyrimidin-4-ylamino}-propyl)-amide], for which the IC50 is under 100 nM. Regarding `CN(C)[C@H]1CCN(Cc2ccc(Nc3ncc(C4CC4)c(NCCCNC(=O)C4CCC4)n3)cn2)C1` [Example 146, Cyclobutanecarboxylic acid (3-{5-cyclopropyl-2-[6-((S)-3-dimethylamino-pyrrolidin-1-ylmethyl)-pyridin-3-ylamino]-pyrimidin-4-ylamino}-propyl)-amide], the IC50 was under 100 nM. Take `CN1CCN(Cc2ccc(Nc3ncc(C4CC4)c(NCCCNC(=O)C4CCC4)n3)cn2)CC1` [Example 147, Cyclobutanecarboxylic acid (3-{5-cyclopropyl-2-[6-(4-methyl-piperazin-1-ylmethyl)-pyridin-3-ylamino]-pyrimidin-4-ylamino}-propyl)-amide]: the IC50 was under 100 nM. The result for `O=C(NCCCNc1nc(Nc2ccc(CN3CCC(F)(F)CC3)nc2)ncc1C1CC1)C1CCC1` [Example 148, Cyclobutanecarboxylic acid (3-{5-cyclopropyl-2-[6-(4,4-difluoro-piperidin-1-ylmethyl)-pyridin-3-ylamino]-pyrimidin-4-ylamino}-propyl)-amide] reads under 100 nM; that for `O=C(NCCCNc1nc(Nc2cncnc2)ncc1C1CC1)C1CCC1` [Example 149, Cyclobutanecarboxylic acid {3-[5-cyclopropyl-2-(pyrimidin-5-ylamino)-pyrimidin-4-ylamino]-propyl}-amide], 1000 to 10000 nM. The result for `O=C(NCCCNc1nc(Nc2ccc(N3CCCCC3)nc2)ncc1C1CC1)C1CCC1` [Example 150, Cyclobutanecarboxylic acid {3-[5-cyclopropyl-2-(3,4,5,6-tetrahydro-2H-[1,2′]bipyridinyl-5′-ylamino)-pyrimidin-4-ylamino]-propyl}-amide] reads under 100 nM; that for `O=C(NCCCNc1nc(Nc2ccc(N3CCCC3)nc2)ncc1C1CC1)C1CCC1` [Example 151, Cyclobutanecarboxylic acid {3-[5-cyclopropyl-2-(6-pyrrolidin-1-yl-pyridin-3-ylamino)-pyrimidin-4-ylamino]-propyl}-amide], under 100 nM; that for `O=C(NCCCNc1nc(Nc2cnc(N3CCOCC3)nc2)ncc1C1CC1)C1CCC1` [Example 152, Cyclobutanecarboxylic acid {3-[5-cyclopropyl-2-(2-morpholin-4-yl-pyrimidin-5-ylamino)-pyrimidin-4-ylamino]-propyl}-amide], under 100 nM. The result for `Cn1cc(Nc2ncc(C3CC3)c(NCCCNC(=O)C3CCC3)n2)cn1` [Example 153, Cyclobutanecarboxylic acid {3-[5-cyclopropyl-2-(1-methyl-1H-pyrazol-4-ylamino)-pyrimidin-4-ylamino]-propyl}-amide] reads under 100 nM; that for `O=C(NCCCNc1nc(Nc2ccc(OCCN3CCOCC3)nc2)ncc1C1CC1)C1CCC1` [Example 154, Cyclobutanecarboxylic acid (3-{5-cyclopropyl-2-[6-(2-morpholin-4-yl-ethoxy)-pyridin-3-ylamino]-pyrimidin-4-ylamino}-propyl)-amide], under 100 nM; that for `O=C(NCCCNc1nc(Nc2cnn(CCN3CCOCC3)c2)ncc1C1CC1)C1CCC1` [Example 155, Cyclobutanecarboxylic acid (3-{5-cyclopropyl-2-[1-(2-morpholin-4-yl-ethyl)-1H-pyrazol-4-ylamino]-pyrimidin-4-ylamino}-propyl)-amide], under 100 nM. For `O=C(NCCCNc1nc(Nc2ccc(CN3CCCCC3)nc2)ncc1C1CC1)C1CCC1` [Example 156, Cyclobutanecarboxylic acid {3-[5-cyclopropyl-2-(6-piperidin-1-ylmethyl-pyridin-3-ylamino)-pyrimidin-4-ylamino]-propyl}-amide], the IC50 was under 100 nM. The result for `O=C(NCCCNc1nc(Nc2ccc(CN3CCCC(F)(F)C3)nc2)ncc1C1CC1)C1CCC1` [Example 157, Cyclobutanecarboxylic acid (3-{5-cyclopropyl-2-[6-(3,3-difluoro-piperidin-1-ylmethyl)-pyridin-3-ylamino]-pyrimidin-4-ylamino}-propyl)-amide] reads under 100 nM; that for `O=C(NCCCNc1nc(Nc2ccc(NCCN3CCOCC3)nc2)ncc1C1CC1)C1CCC1` [Example 158, Cyclobutanecarboxylic acid (3-{5-cyclopropyl-2-[6-(2-morpholin-4-yl-ethylamino)-pyridin-3-ylamino]-pyrimidin-4-ylamino}-propyl)-amide], under 100 nM. The result for `CN(C)[C@@H]1CCN(Cc2ccc(Nc3ncc(C4CC4)c(NCCCNC(=O)C4CCC4)n3)cn2)C1` [Example 159, Cyclobutanecarboxylic acid (3-{5-cyclopropyl-2-[6-((R)-3-dimethylamino-pyrrolidin-1-ylmethyl)-pyridin-3-ylamino]-pyrimidin-4-ylamino}-propyl)-amide] reads under 100 nM; that for `O=C(NCCCNc1nc(Nc2cnn(CCN3CCCCC3)c2)ncc1C1CC1)C1CCC1` [Example 160, Cyclobutanecarboxylic acid (3-{5-cyclopropyl-2-[1-(2-piperidin-1-yl-ethyl)-1H-pyrazol-4-ylamino]-pyrimidin-4-ylamino}-propyl)-amide], under 100 nM.

Regarding `CC(C)n1cc(Nc2ncc(C3CC3)c(NCCCNC(=O)C3CCC3)n2)cn1` [Example 161, Cyclobutanecarboxylic acid {3-[5-cyclopropyl-2-(1-isopropyl-1H-pyrazol-4-ylamino)-pyrimidin-4-ylamino]-propyl}-amide], the IC50 is under 100 nM. The result for `O=C(C1CCC1)N1CC(CNc2nc(Nc3cccc(F)c3)ncc2C2CC2)C1` [Example 162, Cyclobutyl-(3-{[5-cyclopropyl-2-(3-fluoro-phenylamino)-pyrimidin-4-ylamino]-methyl}-azetidin-1-yl)-methanone] reads 100 to 1000 nM; that for `O=C(NCCCNc1nc(Nc2ccc(S(=O)(=O)Nc3ncccn3)cc2)ncc1C1CC1)C1CCC1` [Example 163, Cyclobutanecarboxylic acid (3-{5-cyclopropyl-2-[4-(pyrimidin-2-ylsulfamoyl)-phenylamino]-pyrimidin-4-ylamino}-propyl)-amide], under 100 nM; that for `CNC(=O)c1ccc(Nc2ncc(C3CC3)c(NCCCNC(=O)C3CCC3)n2)cc1` [Example 164, 4-{4-[3-(Cyclobutanecarbonyl-amino)-propylamino]-5-cyclopropyl-pyrimidin-2-ylamino}-N-methyl-benzamide], under 100 nM. As to `CN1CCN(c2ccc(Nc3ncc(C4CC4)c(NCCCNC(=O)C4CCC4)n3)cc2)CC1` [Example 165, Cyclobutanecarboxylic acid (3-{5-cyclopropyl-2-[4-(4-methyl-piperazin-1-yl)-phenylamino]-pyrimidin-4-ylamino}-propyl)-amide], the IC50 was under 100 nM.

`O=C(NCCCNc1nc(Nc2ccc(N3CCOCC3)cc2)ncc1C1CC1)C1CCC1` [Example 166, Cyclobutanecarboxylic acid {3-[5-cyclopropyl-2-(4-morpholin-4-yl-phenylamino)-pyrimidin-4-ylamino]-propyl}-amide]: the IC50 was under 100 nM. Take `CN1Cc2cc(Nc3ncc(C4CC4)c(NCCCNC(=O)C4CCC4)n3)ccc2C1=O` [Example 167, Cyclobutanecarboxylic acid {3-[5-cyclopropyl-2-(2-methyl-1-oxo-2,3-dihydro-1H-isoindol-5-ylamino)-pyrimidin-4-ylamino]-propyl}-amide]: the IC50 was under 100 nM. The result for `O=C(NCCCNc1nc(Nc2ccc3c(c2)CN(CCO)C3=O)ncc1C1CC1)C1CCC1` [Example 168, Cyclobutanecarboxylic acid (3-{5-cyclopropyl-2-[2-(2-hydroxy-ethyl)-1-oxo-2,3-dihydro-1H-isoindol-5-ylamino]-pyrimidin-4-ylamino}propyl)-amide] reads under 100 nM; that for `O=C(NCCCNc1nc(Nc2ccc(-n3cncn3)cc2)ncc1C1CC1)C1CCC1` [Example 169, Cyclobutanecarboxylic acid (3-{5-cyclopropyl-2-[4-(2H-1,2,4-triazol-1-yl)-phenylamino]-pyrimidin-4-ylamino}-propyl)-amide], under 100 nM. The result for `O=C1Cc2cc(Nc3ncc(C4CC4)c(NCCCNC(=O)C4CCC4)n3)ccc2N1` [Example 170, Cyclobutanecarboxylic acid {3-[5-cyclopropyl-2-(2-oxo-2,3-dihydro-1H-indol-5-ylamino)-pyrimidin-4-ylamino]-propyl}-amide] reads under 100 nM.
